Experimental data reported in PMC10982999, “Structure-Guided Design and Optimization of Covalent VHL-Targeted Sulfonyl Fluoride PROTACs” (Journal of Medicinal Chemistry, 2024).
Where two headings read alike, the source gives them in different places.

Key:
[1] = molecular target: T1, BRD4 (HEK293 HiBiT-BRD4 Cln3 cells) (Homo sapiens, UniProt O60885); test: BRD4 HiBiT degradation assay; type: cell-based
T1 construct: GSK; host or cells: HEK293 HiBiT-BRD4 Cln3
Protocol: Figure 3 (A) Structure of BRD-SF2. […] BRD4 and loading control GAPDH levels were visualized by Western blotting. […] (D) HEK293 HiBiT-BRD4 Cln3 cells were treated with epoxomicin (1 μM) for 3 h, followed by the respective PROTAC or VHL-SF2 dose-dependently (75–0.01 μM) for 18 h. […] (E) HEK293 HiBiT-BRD4 Cln3 cells were treated with MLN4924 (1 μM) for 3 h, followed by the respective PROTAC or VHL-SF2 dose-dependently (75–0.01 μM) for 18 h. […] (F) Structure of AR-VHL-SF2 and AR2-VHL-SF2. […] The data the show mean ± SEM (n = 3).
Cellular BRD4/AR HiBiT assay
The HiBiT tagged cells were seeded at 10,000 cells per well in a 384-well plate (Thermo Scientific, 164610) at 25 µL per well in DMEM media containing 10% FBS and incubated overnight. Compounds were dispensed using D300e Digital Dispenser (HP) and normalized to 0.1% DMSO. Cells were pre-treated with Epoxomicin or MLN4924 for 3 h before treatment or directly with the PROTAC degraders for 18 or 24 h. Nano -Glo HiBiT lytic detection assay was performed as described in the manufacturer protocol (Promega). 25 µL of premixed detection reagent was added to each well of the 384 well assay plate and incubated for 15 min on an orbital shaker (at 600 RPM), and luminescence was read using a PHERAstar FS plate reader (BMG Labtech). Corresponding background RLU values were subtracted from DMSO control values and the percentage of protein (%) of were then calculated against […]
DMSO-treated controls. […]

BRD4-HiBiT HEK293T cells = settings: 18 h, 70-0.01 μM
[2] = molecular target: T1, BRD4 (HEK293 HiBiT-BRD4 Cln3 cells); type: cell-based; settings: 5 h treatment, PBS washing, 24 h recovery with excess VH032 (50 μM) vs standard treatment 29 h; from AUC of residual BRD4 long isoform
Protocol: To further investigate the potential advantage of a covalent VHL ligand, we performed a head-to-head comparison of BRD-SF2 and MZ-1 in a washout experiment.
BRD4 and loading control Tubulin levels were visualized by Western blotting. […] BRD4 and loading control Tubulin levels were visualized by Western blotting.
with BRD-SF2 and MZ1, followed by 3 cycles of PBS wash, where media was aspirated, and
PBS used to gently wash the cells before allowing 24 h recovery incubation in DMEM media
The control plate was run as
described above, but no washout was applied making the total incubation time 29 h (5 h + 24
h). The assay was performed and analysed as described above.

[3] = molecular target: T2, endogenous BRD4 in HEK293 cells (Homo sapiens, UniProt O60885); test: Endogenous BRD4 degradation, Western blot; type: cell-based; settings: 18 h, read-out: BRD4 long isoform Dmax
T2 construct: endogenous in cells; host or cells: HEK293

VCB protein = molecular target: T3, VCB protein (Homo sapiens, UniProt P40337); test: Gel-based labelling of VHL (Neutravidin HRP blot); type: binding; settings: 2 h at room temperature, 1-100 µM probe
T3 construct: human VHL (UniPort entry P40337, residues 1 -213); 6xHis followed by TEV site (N, cleaved yes); made in house; host or cells: E. coli One Shot BL21(DE3)
Protocol: (§1) To assess the ability of VHL-SF1 to covalently modify VHL, we initially developed a streptavidin shift assay in which we exposed recombinant human VCB, a stable complex of VHL protein with elongin C and elongin B, to VHL-SF1-Biotin. VHL biotinylation could then be directly quantified by the apparent shift in molecular weight observed when the sample was mixed with streptavidin and analyzed by an anti-VHL Western blot (Figure S2).[20] Through this assay, we concluded that 10 μM VHL-SF1-Biotin modified 32% VHL following 2 h of incubation at room temperature, which was further confirmed to be concentration-dependent with respect to the probe (Figure S3).
Figure S3. (A) Gel-based VHL labelling of VHL-SF1-Biotin, and (B) VHL-SF2-Biotin. […]
Figure S4. Dose-response of VHL-SF1 following a 2 h pre-incubation in the presence of VCB and FAM-conjugated HIF1α-derived peptide, assessed by fluorescence polarization. […]
VCB (11.1 mg/ mL) was diluted with PBS pH 7.4 (2 µg/ mL). […] 10 µL of each sample was loaded onto the gel and the bands were quantified […]
HEK293T cells were plated into two 6 well plates (in 1 mL media 10% FBS low glucose media) at a cell density of 1.0 x 10^6 cells/well 24 h before treatment. […] Proteins were separated by SDS -PAGE and further analyzed by immunoblotting. […]

[4] = molecular target: T4, recombinant human VCB (VHL protein with elongin C and elongin B) (Homo sapiens, UniProt P40337); test: Gel-based streptavidin shift assay (anti-VHL Western blot); type: binding; settings: 10 μM probe, 2 h incubation at room temperature
T4 construct: human VHL (UniPort entry P40337, residues 1 -213); 6xHis followed by TEV site (N, cleaved yes); made in house; host or cells: E. coli One Shot BL21(DE3)
Protocol: as §1
Figure S2. (A) Structure of VHL-SF-1-Biotin. (B) Structure of VHL-SF-2-Biotin. (C - E) Gel-based streptavidin shift assay of VHL-SF1-Biotin, and VHL-SF2-Biotin. VCB protein was pre-treated with DMSO, VHL-SF1-Biotin (10 μM) or VHL-SF2-Biotin (10 μM) for 2 h at room temperature prior to addition of streptavidin (10 μM, 10 min) at room temperature, after which protein was resolved on SDS-PAGE and visualised by VHL western blotting. (F) Quantification of VHL levels from western blot.
Docking analysis with Molecular Operating Environment (MOE)
Molecular modelling studies were conducted using the software Molecular Operating Environment 2019.01. […]

COCC(COC)n1c(-c2cc(C)c(=O)n(C)c2)nc2cc(C3CCN(C(=O)COCCOCCOCCNC(=O)C[C@H](NC(=O)[C@@H]4C[C@@H](S(=O)(=O)F)CN4C(=O)[C@@H](c4cc(C)no4)C(C)C)c4ccc(-c5scnc5C)cc4)CC3)ccc21 [BRD-SF2, (3R,5S)-5-(((S)-1-(4-(1-(1,3-Dimethoxypropan-2-yl)-2-(1,5-dimethyl-6-oxo-1,6-dihydropyridin-3-yl)-1H-benzo[d]imidazole-5-yl)piperidin-1-yl)-15-(4-(4-methylthiazol-5-yl)phenyl)-1,13-dioxo-3,6,9-trioxa-12-azapentadecan-15-yl)carbamoyl)-1-((R)-3-methyl-2-(3-methylisoxazol-5-yl)butanoyl)pyrrolidine-3-sulfonyl fluoride]
Dmax ([1]; HEK293, read-out: Dmax (BRD4 degradation)): 60% | BRD4 depletion in presence of NEDDylation inhibitor MLN4924 ([1]; MLN4924 1 μM 3 h pretreatment, then compound 18 h): not depleted | BRD4 depletion in presence of proteasome inhibitor epoxomicin ([1]; epoxomicin 1 μM 3 h pretreatment, then compound 18 h): not depleted | DC50 ([1]; read-out: BRD4 DC50): 17 µM | DC50 ([1]; read-out: DC50 (BRD4 degradation), 18 h incubation): 17.2 µM | cytotoxicity (CellTiter-Glo) (BRD4-HiBiT HEK293T cells): no evidence of cytotoxicity | relative decrease in degradation activity after washout [2]: 27% | Dmax [3]: 50%

(3R,5S)-1-((S)-2-(tert-Butyl)-4,16-dioxo-20-((3aS,4R,6aR)-2-oxohexahydro-1H-thieno[3,4-d]imidazole-4-yl)-6,9,12-trioxa-3,15-diazaicosanoyl)-5-((4-(4-methylthiazol-5-yl)benzyl)carbamoyl-)pyrrolidine-3-sulfonyl fluoride [VHL-SF1-Biotin]
VHL labelling with respect to probe concentration (VCB protein): concentration-dependent | VHL modified (VHL biotinylation, streptavidin shift) [4]: 32%
